Assay: Cytotoxicity against human MT4 cells
Type: cell-based

Q: Which CC50 does the source give for `Cc1cccc(Nn2c(S)nc(C)c2-c2cccc(C(=O)O)c2)c1` here?
A: 187 µM

Q: Which CC50 does the source give for `Cc1ncn(Nc2cccc(Cl)c2)c1-c1ccccc1` here?
A: 17.5 µM

Q: With `COC(=O)c1cccc(-c2c(C)ncn2Nc2cccc(Cl)c2)c1` as the molecule, how does the CC50 read?
A: 33.1 µM

Q: With `Cc1nc(S)n(Nc2cccc(Cl)c2)c1C` as the molecule, how does the CC50 read?
A: 259 µM

Q: Which CC50 does the source give for `Cc1ncn(Nc2cccc(Cl)c2)c1-c1cccc(C#N)c1` here?
A: 36.8 µM

Q: Which CC50 does the source give for `Cc1[nH]c(=S)n(Nc2ccccc2)c1-c1ccccc1` here?
A: 191 µM

Q: For `Cc1ncn(Nc2ccccc2)c1-c1ccccc1`, which CC50 is on record?
A: 52.1 µM

Q: For `Cc1nc(S)n(Nc2cc(Cl)ccc2Cl)c1-c1ccccc1`, which CC50 is on record?
A: 147 µM

Q: For `Cc1nc(S)n(Nc2cccc(Cl)c2)c1-c1cccc(C(=O)O)c1`, which CC50 is on record?
A: 120 µM

Q: With `Cc1nc(S)n(Nc2cccc3ccccc23)c1-c1ccccc1` as the molecule, how does the CC50 read?
A: 12 µM

Q: With `Cc1ncn(Nc2cccc(Cl)c2)c1-c1cccc(C(=O)O)c1` as the molecule, how does the CC50 read?
A: 161 µM

Q: With `Cc1cccc(Nn2cnc(C)c2-c2cccc(C#N)c2)c1` as the molecule, how does the CC50 read?
A: 44.7 µM

Q: With `Cc1[nH]c(=S)n(Nc2cccc(Cl)c2)c1-c1ccc(Cl)cc1` as the molecule, how does the CC50 read?
A: 40.8 µM

Q: With `Cc1ncn(Nc2ccccc2)c1C` as the molecule, how does the CC50 read?
A: 352 µM

Q: With `COC(=O)c1nc(S)n(Nc2cccc(Cl)c2)c1C` as the molecule, how does the CC50 read?
A: 48.8 µM

Q: For `Clc1cccc(Nn2cnc3c2CCCC3)c1`, which CC50 is on record?
A: 67.3 µM

Q: With `Sc1nc(-c2ccccc2)c(-c2ccccc2)n1Nc1cccc(Cl)c1` as the molecule, how does the CC50 read?
A: 36.3 µM

Q: Which CC50 does the source give for `Cc1cccc(Nn2c(-c3ccccc3)c(C)[nH]c2=S)c1` here?
A: 88.3 µM

Q: With `COC(=O)c1c(C)ncn1Nc1cccc(Cl)c1` as the molecule, how does the CC50 read?
A: 107 µM

Q: For `Cc1[nH]c(=S)n(Nc2cccc(Br)c2)c1-c1ccccc1`, which CC50 is on record?
A: 44.3 µM

Q: With `Cc1nc(S)n(Nc2cccc(Cl)c2)c1-c1cccc(N)c1` as the molecule, how does the CC50 read?
A: 42.2 µM

Q: For `COc1ccc(-c2c(C)[nH]c(=S)n2Nc2cccc(Cl)c2)cc1`, which CC50 is on record?
A: 38.7 µM

Q: With `Cc1[nH]c(=S)n(Nc2cccc(Cl)c2)c1-c1cccc(Cl)c1` as the molecule, how does the CC50 read?
A: 31 µM

Q: Which CC50 does the source give for `Cc1cc(C)cc(Nn2cnc(C)c2-c2ccccc2)c1` here?
A: 20.4 µM

Q: With `Cc1nc(S)n(Nc2cccc(Cl)c2)c1C(=O)O` as the molecule, how does the CC50 read?
A: 265 µM

Q: With `CCc1ncn(Nc2cccc(C)c2)c1-c1ccccc1` as the molecule, how does the CC50 read?
A: 27.9 µM

Q: With `Cc1ncn(Nc2cccc(Cl)c2)c1C` as the molecule, how does the CC50 read?
A: 214 µM

Q: Which CC50 does the source give for `COC(=O)c1c(C)nc(S)n1Nc1cccc(Cl)c1` here?
A: 190 µM

Q: For `Cc1ncn(Nc2cccc(Cl)c2)c1-c1cccc(Br)c1`, which CC50 is on record?
A: 16.4 µM

Q: With `Cc1ccc(Nn2c(-c3ccccc3)c(C)[nH]c2=S)cc1Cl` as the molecule, how does the CC50 read?
A: 44.3 µM

Q: Which CC50 does the source give for `Cc1[nH]c(=S)n(Nc2cccc(Cl)c2)c1-c1ccccc1` here?
A: 66.7 µM

Q: Which CC50 does the source give for `Cc1ncn(Nc2cccc(Cl)c2)c1-c1cccc(Cl)c1` here?
A: 11.9 µM

Q: Which CC50 does the source give for `CCc1ccc(Nn2c(S)nc(C)c2-c2ccccc2)cc1` here?
A: 34.4 µM

Q: For `Cc1[nH]c(=S)n(Nc2ccc(Cl)cc2)c1-c1ccccc1`, which CC50 is on record?
A: 135 µM

Q: With `Cc1cccc(Nn2cnc(C)c2-c2ccccc2)c1` as the molecule, how does the CC50 read?
A: 27 µM

Q: With `Cc1ncn(Nc2ccc(F)cc2)c1-c1ccccc1` as the molecule, how does the CC50 read?
A: 30.8 µM

Q: Which CC50 does the source give for `Cc1[nH]c(=S)n(Nc2cccc([N+](=O)[O-])c2)c1-c1ccccc1` here?
A: 48.3 µM

Q: With `Cc1cccc(Nn2c(-c3ccccc3)c(C(C)C)[nH]c2=S)c1` as the molecule, how does the CC50 read?
A: 42.7 µM

Q: For `CSc1ccc(Nn2c(S)nc(C)c2-c2ccccc2)cc1`, which CC50 is on record?
A: 53.1 µM

Q: For `COc1cccc(Nn2cnc(C)c2-c2ccccc2)c1`, which CC50 is on record?
A: 34.4 µM

Q: With `Cc1cccc(Nn2cnc(C)c2C)c1` as the molecule, how does the CC50 read?
A: 312 µM

Q: For `Cc1cccc(Nn2cnc(C)c2-c2cccc(N)c2)c1`, which CC50 is on record?
A: 163 µM

Q: With `COC(=O)c1cccc(-c2c(C)nc(S)n2Nc2cccc(Cl)c2)c1` as the molecule, how does the CC50 read?
A: 67.3 µM

Q: With `CCc1[nH]c(=S)n(Nc2cccc(Cl)c2)c1-c1ccccc1` as the molecule, how does the CC50 read?
A: 39 µM

Q: Which CC50 does the source give for `COc1cccc(Nn2c(S)nc(C)c2-c2ccccc2)c1` here?
A: 38 µM

Q: With `Cc1ccc(Nn2c(-c3ccccc3)c(C)[nH]c2=S)cc1C` as the molecule, how does the CC50 read?
A: 55.6 µM

Q: For `CCc1[nH]c(=S)n(Nc2cccc(C)c2)c1-c1ccccc1`, which CC50 is on record?
A: 53.6 µM

Q: For `Cc1[nH]c(=S)n(Nc2cccc(F)c2)c1-c1ccccc1`, which CC50 is on record?
A: 109 µM

Q: Which CC50 does the source give for `Cc1ncn(Nc2cccc(Cl)c2)c1-c1cccc(N)c1` here?
A: 261 µM

Q: For `Cc1nc(S)n(Nc2cccc(Cl)c2)c1-c1ccc(Br)cc1`, which CC50 is on record?
A: 33.2 µM

Q: Which CC50 does the source give for `Cc1nc(S)n(Nc2ccccc2)c1C` here?
A: 181 µM

Q: With `Cc1[nH]c(=S)n(Nc2ccccc2Cl)c1-c1ccccc1` as the molecule, how does the CC50 read?
A: 162 µM

Q: With `Cc1[nH]c(=S)n(Nc2cccc(Cl)c2)c1-c1cccc(Br)c1` as the molecule, how does the CC50 read?
A: 44 µM

Q: Which CC50 does the source give for `Cc1nc(S)n(Nc2cccc(Cl)c2)c1-c1cccc(C#N)c1` here?
A: 99.3 µM

Q: Which CC50 does the source give for `Cc1cc(C)cc(Nn2c(-c3ccccc3)c(C)[nH]c2=S)c1` here?
A: 194 µM

Q: For `Cc1c(-c2ccccc2)nc(S)n1Nc1cccc(Cl)c1`, which CC50 is on record?
A: 50 µM

Q: Which CC50 does the source give for `Sc1nc2c(n1Nc1cccc(Cl)c1)CCCC2` here?
A: 126 µM

Q: For `Cc1cccc(Nn2c(S)nc(C)c2-c2cccc(C#N)c2)c1`, which CC50 is on record?
A: 45.6 µM

Q: For `Cc1[nH]c(=S)n(Nc2ccc(F)cc2)c1-c1ccccc1`, which CC50 is on record?
A: 220 µM

Q: With `Cc1cccc(Nn2c(S)nc(C)c2C)c1` as the molecule, how does the CC50 read?
A: 360 µM

From ChEMBL document CHEMBL1158352, “Development of CoMFA and CoMSIA models of cytotoxicity data of anti-HIV-1-phenylamino-1H-imidazole derivatives” (Eur J Med Chem, 2009)
